Data on 47 compounds can be found in patent publication US20100267743A1, “3-(PHENOXYPYRROLIDIN-3-YL-METHYL)HETEROARYL, 3-(PHENYLPYRROLIDIN-3-YLMETHOXY)HETEROARYL, AND 3-(HETEROARYLPYRROLIDIN-3-YLMETHOXY)HETEROARYL COMPOUNDS” (priority 2009, published 2010).

In one assay the target is SERT (Homo sapiens, UniProt P31645). The experiment in a line: hSERT radioligand binding assay (3H-citalopram). Conditions: hSERT membranes (HEK-293), 1.0 nM 3H-citalopram; for Ki: read-out: SERT pKi (converted). Details: expressed in transfected cells; host or cells: HEK-293. The method, then:
(§1) Membrane radioligand binding assays were used to measure inhibition of labeled ligand (^3H-citalopram or ^3H-nisoxetine or ^3H-WIN35428) binding to membranes prepared from cells expressing the respective human recombinant transporter (hSERT or hNET or hDAT) in order to determine the pKi values of test compounds at the transporters.
(§2) Recombinant human embryonic kidney (HEK-293) derived cell lines stably transfected with hSERT or hNET, respectively, were grown in DMEM medium supplemented with 10% dialyzed FBS (for hSERT) or FBS (for hNET), 100 μg/ml penicillin, 100 μg/ml streptomycin, 2 mM L-glutamine and 250 μg/ml of the aminoglycoside antibiotic G418, in a 5% CO2 humidified incubator at 37° C. When cultures reached 80% confluence, the cells were washed thoroughly in PBS (without […] and Mg^2+) and lifted with 5 mM EDTA in PBS. Cells were pelleted by centrifugation, resuspended in lysis buffer (10 mM Tris-HCl, pH7.5 containing 1 mM EDTA), homogenized, pelleted by centrifugation, then resuspended in 50 mM Tris-HCl, pH 7.5 and 10% sucrose at 4° C. Protein concentration of the membrane suspension was determined using a Bio-Rad Bradford Protein Assay kit. Membranes were snap frozen and stored at −80° C. Chinese hamster ovary membranes expressing hDAT (CHO-DAT) were purchased from PerkinElmer and stored at −80° C.
(§3) Binding assays were performed in a 96-well assay plate in a total volume of 200 μl assay buffer (50 mM Tris-HCl, 120 mM NaCl, 5 mM KCl, pH 7.4) with 0.5, 1, and 3 μg membrane protein, for SERT, NET and DAT, respectively.
(§4) Stock solutions (10 mM in DMSO) of test compound were prepared and serial dilutions made using Dilution Buffer (50 mM Tris-HCl, 120 mM NaCl, 5 mM KCl, pH 7.4, 0.1% BSA, 400 μM ascorbic acid).
(§5) Following a 60 minute incubation at 22° C. (or a period sufficient to reach equilibrium), the membranes were harvested by rapid filtration over a 96-well UniFilter GF/B plate, pretreated with 0.3% polyethyleneimine, and washed 6 times with 300 μl wash buffer (50 mM Tris-HCl, 0.9% NaCl, pH 7.5 at 4° C.). Plates were dried overnight at room temperature, ˜45 μl of MicroScint™-20 (Perkin Elmer) added and bound radioactivity quantitated via liquid scintillation spectroscopy. Inhibition curves and saturation isotherms were analyzed using GraphPad Prism Software package (GraphPad Software, Inc., San Diego, Calif.). IC50 values were generated from concentration response curves using the Sigmoidal Dose Response (variable slope) algorithm in Prism GraphPad. Kd and Bmax values for the radioligand were generated from saturation isotherms using the Saturation Binding Global Fit algorithm in Prism GraphPad. pKi (negative decadic logarithm of Ki) values for test compounds were calculated from the best-fit IC50 values, and the Kd value of the radioligand, using the Cheng-Prusoff equation (Cheng & Prusoff (1973) Biochem. Pharmacol. 22(23):3099-3108): Ki=IC50/(1+[L]/Kd), where [L]=concentration radioligand.

The target in a further assay is NET (Homo sapiens, UniProt P23975). The experiment in a line: hNET radioligand binding assay (3H-nisoxetine). More on the design: expressed in transfected cells; host or cells: HEK-293. The note with it: hNET membranes (HEK-293), 1.0 nM 3H-nisoxetine; for Ki: read-out: NET pKi (converted). The method, then: as §1, §2, §3, §4, §5
Chain of NET (P23975 whole entry): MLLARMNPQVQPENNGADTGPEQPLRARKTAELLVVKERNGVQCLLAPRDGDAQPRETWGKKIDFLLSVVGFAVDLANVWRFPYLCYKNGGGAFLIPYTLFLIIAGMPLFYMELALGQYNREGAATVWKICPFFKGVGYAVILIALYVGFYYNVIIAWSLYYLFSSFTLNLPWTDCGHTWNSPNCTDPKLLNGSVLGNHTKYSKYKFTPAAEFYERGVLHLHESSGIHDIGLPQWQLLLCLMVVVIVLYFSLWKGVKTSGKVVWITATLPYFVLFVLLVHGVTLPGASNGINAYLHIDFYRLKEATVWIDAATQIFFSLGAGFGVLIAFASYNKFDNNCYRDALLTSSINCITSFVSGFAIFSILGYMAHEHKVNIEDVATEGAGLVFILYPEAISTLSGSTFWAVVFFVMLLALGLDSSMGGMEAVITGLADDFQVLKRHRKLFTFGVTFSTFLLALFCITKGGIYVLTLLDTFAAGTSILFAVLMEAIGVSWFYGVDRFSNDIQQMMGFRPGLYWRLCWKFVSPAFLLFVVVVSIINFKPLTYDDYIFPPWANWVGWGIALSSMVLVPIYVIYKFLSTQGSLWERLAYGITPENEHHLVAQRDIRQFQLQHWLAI

Chain of SERT (P31645 whole entry): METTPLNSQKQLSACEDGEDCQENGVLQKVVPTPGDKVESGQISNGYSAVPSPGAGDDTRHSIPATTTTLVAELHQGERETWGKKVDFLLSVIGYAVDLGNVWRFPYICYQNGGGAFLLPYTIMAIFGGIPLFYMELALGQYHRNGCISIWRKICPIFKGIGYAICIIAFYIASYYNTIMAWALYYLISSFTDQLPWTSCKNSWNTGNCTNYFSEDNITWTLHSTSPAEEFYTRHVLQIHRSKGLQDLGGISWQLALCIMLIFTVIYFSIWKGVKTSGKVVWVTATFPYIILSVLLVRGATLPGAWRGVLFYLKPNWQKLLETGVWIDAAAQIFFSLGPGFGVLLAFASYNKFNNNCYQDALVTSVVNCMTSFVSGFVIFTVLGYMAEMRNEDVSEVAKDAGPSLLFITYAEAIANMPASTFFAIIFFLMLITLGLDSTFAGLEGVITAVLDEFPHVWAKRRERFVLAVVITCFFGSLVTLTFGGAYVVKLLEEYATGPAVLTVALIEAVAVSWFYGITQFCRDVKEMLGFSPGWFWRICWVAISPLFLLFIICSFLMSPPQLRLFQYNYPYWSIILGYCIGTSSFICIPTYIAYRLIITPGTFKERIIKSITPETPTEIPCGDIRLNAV

As for `Fc1cccnc1O[C@H](c1ccccc1)[C@@H]1CCNC1.O=C(O)C(F)(F)F` [14-35], the “SERT pKi” value on SERT is listed as “≧5.0”. On NET, the “NET pKi” value is “≧7.0”.
For the compound `Cc1cccnc1OC(c1ccccc1)C1CCNC1` (stereo not shown) [14-37], the “SERT pKi” value on SERT was “≧5.0”. The “NET pKi” value at NET is “≧5.0”.
`COc1cccnc1O[C@@H](c1ccccc1)[C@H]1CCNC1.O=C(O)C(F)(F)F` [14-39]: the “SERT pKi” value on SERT is listed as “≧7.0”. Moreover, at NET, the “NET pKi” value is given as “≧5.0”.
`c1ccc(C(Oc2ccccn2)C2CCNC2)cc1` (stereo not shown) [14-40]: the Ki at SERT is not above 10 µM; at NET, not above 0.1 µM.
In the case of `O=C(O)C(F)(F)F.c1ccc([C@H](Oc2ccccn2)[C@H]2CCNC2)cc1` [14-41], the “SERT pKi” value at SERT is “≧7.0”. Further, the “NET pKi” value at NET is “≧7.0”.
Turning to `Fc1nc(OC(c2ccccc2)C2CCNC2)c(F)c(F)c1F` (stereo not shown) [14-42], at SERT, the “SERT pKi” value is on record as “≧5.0”. Also, the “NET pKi” value on NET is “≧5.0”.
On to `Clc1ccc(O[C@@H](c2ccccc2)C2CCNC2)c(Cl)n1` (stereo partly shown) [15-1], for which the Ki on SERT and on NET was not above 0.1 µM each time.
Regarding `Clc1ccc(O[C@@H](c2ccccc2)[C@H]2CCNC2)c(Cl)n1.O=C(O)C(F)(F)F` [15-3], the “SERT pKi” value on SERT was “≧7.0”. For the same compound, at NET, the “NET pKi” value is “≧7.0”.
Turning to `Clc1ncccc1O[C@@H](c1ccccc1)C1CCNC1` (stereo partly shown) [15-4], the Ki at SERT and on NET was not above 0.1 µM in each case.
Turning to `Clc1ncccc1O[C@H](c1ccccc1)[C@@H]1CCNC1.O=C(O)C(F)(F)F` [15-5], the “SERT pKi” value at SERT is on record as “≧7.0”. Also, the “NET pKi” value at NET is listed as “≧7.0”.
Turning to `Clc1ncccc1O[C@@H](c1ccccc1)[C@H]1CCNC1.O=C(O)C(F)(F)F` [15-6], the “SERT pKi” value at SERT was “≧7.0”. Besides, at NET, the “NET pKi” value was “≧7.0”.
`Fc1ncccc1O[C@@H](c1ccccc1)[C@H]1CCNC1.O=C(O)C(F)(F)F` [15-8]: the “SERT pKi” value at SERT is listed as “≧7.0”. The “NET pKi” value on NET is “≧7.0”.
In the case of `Cc1ncccc1O[C@@H](c1ccccc1)[C@H]1CCNC1.O=C(O)C(F)(F)F` [15-9], the “SERT pKi” value at SERT is recorded as “≧5.0”. The “NET pKi” value at NET is “≧5.0”.
`FC(F)(F)COc1ncccc1O[C@@H](c1ccccc1)[C@H]1CCNC1.O=C(O)C(F)(F)F` [15-11]: the “SERT pKi” value on SERT is “≧7.0”. In addition, on NET, the “NET pKi” value is “≧7.0”.
`O=C(O)C(F)(F)F.c1ccc([C@H](Oc2cccnc2OC2CCCC2)[C@H]2CCNC2)cc1` [15-13]: the “SERT pKi” value at SERT is on record as “≧7.0”. In addition, at NET, the “NET pKi” value is “≧7.0”.
As to `COc1ncccc1O[C@@H](c1ccccc1)C1CCNC1` (stereo partly shown) [15-16], the Ki at SERT and on NET was not above 0.1 µM in each case.
With `COc1ncccc1O[C@@H](c1ccccc1)[C@H]1CCNC1.O=C(O)C(F)(F)F` [15-17], the “SERT pKi” value on SERT is “≧7.0”. Further, the “NET pKi” value on NET is given as “≧7.0”.
Regarding `CCCOc1ncccc1O[C@@H](c1ccccc1)[C@H]1CCNC1.O=C(O)C(F)(F)F` [15-19], at SERT, the “SERT pKi” value is “≧7.0”. For the same compound, the “NET pKi” value on NET was “≧7.0”.
As for `CCOc1ncccc1O[C@@H](c1ccccc1)[C@H]1CCNC1.O=C(O)C(F)(F)F` [15-20], on SERT, the “SERT pKi” value is reported as “≧7.0”. The “NET pKi” value at NET is “≧7.0”.
As for `Fc1cc(O[C@@H](c2ccccc2)[C@H]2CCNC2)cnc1F.O=C(O)C(F)(F)F` [15-21], the “SERT pKi” value on SERT is recorded as “≧5.0”. Further, the “NET pKi” value at NET was “≧7.0”.
Consider `Clc1ccc(O[C@@H](c2ccccc2)C2CCNC2)cn1` (stereo partly shown) [15-22], for which the Ki is not above 0.1 µM on SERT and not above 10 µM at NET.
For the compound `Clc1ccc(O[C@H](c2ccccc2)[C@@H]2CCNC2)cn1.O=C(O)C(F)(F)F` [15-23], the “SERT pKi” value on SERT is reported as “≧7.0”. Besides, the “NET pKi” value at NET is listed as “≧5.0”.
Taken in the same sequence, the figures for `Clc1ccc(O[C@@H](c2ccccc2)[C@H]2CCNC2)cn1.O=C(O)C(F)(F)F` [15-24] were “≧7.0” and “≧5.0”.
For `Fc1ccc(O[C@@H](c2ccccc2)C2CCNC2)cn1` (stereo partly shown) [15-25], the Ki at SERT was not above 0.1 µM; at NET it was not above 10 µM.
For `Fc1ccc(O[C@H](c2ccccc2)[C@@H]2CCNC2)cn1.O=C(O)C(F)(F)F` [15-26], the “SERT pKi” value on SERT was “≧7.0”. Further, the “NET pKi” value on NET was “≧5.0”.
On to `Fc1ccc(O[C@@H](c2ccccc2)[C@H]2CCNC2)cn1.O=C(O)C(F)(F)F` [15-27], for which the “SERT pKi” value at SERT was “≧7.0”. For the same compound, the “NET pKi” value on NET was “≧5.0”.
Taken in the same sequence, the figures for `Cc1ccc(OC(c2ccccc2)C2CCNC2)cn1` (stereo not shown) [15-28] were “≧7.0” and “≧5.0”.
As for `COc1ccc(O[C@@H](c2ccccc2)C2CCNC2)cn1` (stereo partly shown) [15-29], the Ki on SERT is not above 0.1 µM; at NET, not above 10 µM.
As to `COc1ccc(O[C@@H](c2ccccc2)[C@H]2CCNC2)cn1.O=C(O)C(F)(F)F` [15-31], at SERT, the “SERT pKi” value is listed as “≧7.0”. Also, the “NET pKi” value on NET is listed as “≧5.0”.
With `c1ccc(C(Oc2cccnc2)C2CCNC2)cc1` (stereo not shown) [15-32], the Ki is not above 0.1 µM at SERT and not above 10 µM at NET.
In the case of `Cc1c(O[C@@H](c2ccccc2)[C@H]2CCNC2)ccnc1Cl.O=C(O)C(F)(F)F` [16-1], the “SERT pKi” value at SERT was “≧7.0”. Moreover, the “NET pKi” value on NET is recorded as “≧5.0”.
The matching figures for `Clc1cc(O[C@@H](c2ccccc2)[C@H]2CCNC2)cc(Cl)n1.O=C(O)C(F)(F)F` [16-2]: “≧7.0” and “≧5.0”.
As for `Clc1cc(O[C@@H](c2ccccc2)C2CCNC2)ccn1` (stereo partly shown) [16-3], the results for the Ki at SERT and at NET were not above 0.1 µM and not above 10 µM, respectively.
With `Fc1cc(O[C@@H](c2ccccc2)[C@H]2CCNC2)ccn1.O=C(O)C(F)(F)F` [16-6], at SERT, the “SERT pKi” value is given as “≧5.0”. In addition, the “NET pKi” value at NET is “≧5.0”.
For the compound `Fc1cncc([C@H](Oc2cccc3ccccc23)[C@H]2CCNC2)c1.O=C(O)C(F)(F)F` [19-2], on SERT, the “SERT pKi” value is recorded as “≧7.0”. Besides, the “NET pKi” value on NET was “≧7.0”.
`O=C(O)C(F)(F)F.c1ccc2c(O[C@@H](c3ncco3)[C@H]3CCNC3)cccc2c1` [19-3]: the “SERT pKi” value at SERT is on record as “≧7.0”. For the same compound, on NET, the “NET pKi” value is given as “≧7.0”.
Take `O=C(O)C(F)(F)F.c1ccc2cc(O[C@@H](c3ncco3)[C@H]3CCNC3)ccc2c1` [20-1]: at SERT, the “SERT pKi” value is listed as “≧7.0”. Also, the “NET pKi” value on NET is “≧7.0”.
Take `Fc1cncc([C@H](Oc2ccc3ccccc3c2)[C@H]2CCNC2)c1.O=C(O)C(F)(F)F` [20-3]: at SERT, the “SERT pKi” value is listed as “≧7.0”. Further, on NET, the “NET pKi” value is listed as “≧7.0”.
`c1ccc(C(Oc2cccc3ccccc23)C2CCNC2)cc1` (stereo not shown) [21-1]: the Ki on SERT and at NET was not above 0.1 µM in each case.
Consider `Cc1ccccc1C(Oc1cccc2ccccc12)C1CCNC1` (stereo not shown) [21-3], for which the Ki on SERT and at NET was not above 0.1 µM throughout.
`Fc1cccc(C(Oc2cccc3ccccc23)C2CCNC2)c1` (stereo not shown) [21-4]: the Ki on SERT and at NET was not above 0.1 µM in each case.
For `Clc1cccc(C(Oc2cccc3ccccc23)C2CCNC2)c1` (stereo not shown) [21-5], the Ki on SERT and at NET was not above 0.1 µM throughout.
For `COc1cccc(C(Oc2cccc3ccccc23)C2CCNC2)c1` (stereo not shown) [21-6], the Ki at SERT and at NET was not above 0.1 µM throughout.
Take `FC(F)(F)Oc1cccc(C(Oc2cccc3ccccc23)C2CCNC2)c1` (stereo not shown) [21-7]: the Ki is not above 0.1 µM on SERT and not above 10 µM on NET.
The matching figures for `COc1ccc2ccccc2c1OC(c1ccccc1)C1CCNC1` (stereo not shown) [21-8]: not above 0.1 µM and not above 0.1 µM.
The matching figures for `Fc1ccc(O[C@@H](c2ccccc2)C2CCNC2)c2ccccc12` (stereo partly shown) [21-9]: not above 0.1 µM and not above 0.1 µM.
For `COc1cc(Cl)ccc1O[C@@H](c1cncc(F)c1)[C@H]1CCNC1` [Example 1], the Ki at SERT and on NET was not above 0.1 µM each time.
